Nine compounds from PubChem BioAssay AID2060624 (Molecular Pharmacology Branch, DTP, NCI, 2025) can be followed below.

Molecules are shown by their SMILES. “And” between values parts separate entries of the source, which are not always exact repeats. Equal values may be shown once. Bounds are passed on as bounds.

The test relates to 217524-143-R1-J4-PDC spheroids with HUVEC/MSC, viability. The test is described as follows: Anticancer human tumor 217524-143-R1-J4-PDC patient-derived pancreatic carcinoma cell line growth inhibition [CLK]. As to conditions: for viability, T/C: stronger effect = lower value. From the text:
A high-throughput screen of multi-cell type tumor spheroids was designed to identify active combinations of […] and targeted small molecules. Complex spheroids include a stromal component modeled by human endothelial cells (HUVEC) and fibroblasts modeled by human mesenchymal stem cells (MSCs). The concentration ranges selected for each drug and investigational agent were based upon clinically achievable concentrations if the clinical Cmax of the agent was known.
Compounds. The drugs and investigational agents: cirtuvivint (SM08502; NSC835563), CC-671 (NSC850746), vemurafenib (NSC761431), tapotoclax (NSC804041), sotorasib (NSC818433), adagrasib (NSC831453), MRTX-1133 (NSC836407), BAY2416964 (NSC825713), copanlisib (NSC816437), inavolisib (NSC800729), abemaciclib (NSC768073), osimertinib (NSC779217), entinostat (NSC756642), eltanexor (KPT-8602, NSC794443), venetoclax (NSC766270), ceralasertib (NSC777638), bortezomib (NSC756655), olaparib (NSC753686), talazoparib (NSC767125), alisertib (NSC759677), peposertib (NSC802822), gemcitabine (NSC613327), 5-fluorouracil (NSC19893), SN-38 (NSC673596), oxaliplatin (NSC266046), paclitaxel (NSC125973), and doxorubicin (NSC123127), were obtained from the National Cancer Institute (NCI) Developmental Therapeutics Program Chemical Repository. The FDA-approved anticancer drug set is available from the Developmental Therapeutics Program at https://dtp.cancer.gov/organization/dscb/obtaining/available plates.htm. […] The stock solutions were prepared in dimethyl sulfoxide (DMSO, Sigma-Aldrich, St. Louis, MO, cat. D2650), except for the platinum complexes which were prepared in saline (Quality Biological, Gaithersburg, MD, cat. 114-055-101), at 800-fold the tested concentration and stored at -70 degrees C prior to their use. All drugs and investigational agents were tested over a range starting from a high concentration at or near the clinical Cmax and decreasing in half-log increments. If the clinical Cmax for an agent had not been determined, the highest concentration tested was 10 microM.
Cell Culture. All cells were maintained in an incubator at 37 degrees C and 5% CO2 with 95% humidity. The PDC lines were cultured according to standard operating procedures established by the NCI PDMR. Briefly, all PDCs were thawed and cultured in Matrigel-coated flasks prepared with a working solution of 1X Ham's F-12 nutrient mix, without supplementation (Invitrogen, Waltham, MA, cat. 11765054), 100 U/mL penicillin-streptomycin (Invitrogen, cat. 15140122), and 2.5% Matrigel (Corning Inc., Corning, NY, cat. 354248) for the first three passages. The 947758-054-R-J2-PDC line was cultured in 6B/Colon 1A media, which includes advanced DMEM/F-12 (Thermo Fisher Scientific, cat. 12634028), 10 mM HEPES (Thermo Fisher Scientific, cat. 15630080), 1X GlutaMAX supplement (Thermo Fisher Scientific, cat. 35050061), 0.1 mg/mL primocin (InvivoGen, cat. ant-pm-2), 10% defined fetal bovine serum, heat inactivated (HyClone Laboratories Inc., cat. SH30070.03HI), 1.25 mM N-Acetyl-L-cysteine (Sigma-Aldrich, cat. A9165), 10 mM nicotinamide (Sigma-Aldrich, cat. N0636), 1X B-27 supplement (Thermo Fisher Scientific, cat. 17504044), 1X N-2 supplement (Thermo Fisher Scientific, cat. 17502048), and 10 microM Y-27632 dihydrochloride (Tocris Bioscience, cat. 1254). The 876862-298-R-J1-PDC was cultured in 6E media, which includes all 6B/Colon 1A media components plus 50% L-WRN conditioned media (ATCC, cat. CRL-3276), 50 ng/mL recombinant human EGF recombinant protein (hEGF; Thermo Fisher Scientific, cat. PHG0311), 10 ng/mL recombinant human fibroblast growth factor 10 (hGFG-10; PeproTech, cat. 100-26), 1 ng/mL recombinant human fibroblast growth factor 2 (hFGF-2; PeproTech, cat. 100-18B), and 1 µM prostaglandin E2 (PGE2; Tocris, cat. 2296). The 227483-062-R1-J1-PDC line was cultured in Panc media, containing all 6E components except hFGF-2, with the addition of 500 nM SB-431542 (Selleckchem, cat. S1067) and 10 nM gastrin (Tocris, cat. 3006). […]
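Also: spheroids exposed to agents for seven days before reading.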
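For viability, T/C in this document: 100% = DMSO vehicle control viability.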

On to `CC(=O)O[C@H]1C(=O)[C@@]2(C)[C@H]([C@H](OC(=O)c3ccccc3)[C@]3(O)C[C@H](OC(=O)[C@H](O)[C@@H](NC(=O)c4ccccc4)c4ccccc4)C(C)=C1C3(C)C)[C@]1(OC(C)=O)CO[C@@H]1C[C@@H]2O`, for which the viability, T/C (compound 0.0316 µM) was 12.7% and 12%; the viability, T/C (compound 0.1 µM) is 12.4% and 12.9%; the viability, T/C (compound 0.316 µM) was 10.1% and 12.3%; the viability, T/C (compound 1 µM) is 9.86% and 10.8%; the viability, T/C (compound 3.16 µM) was 13.6% and 14.1%; the viability, T/C (compound 10 µM) was 16% and 16.4%. In addition, the IC50 (curve of compound) is < 31.6 nM.
In the case of `CC1(C)CCC(CN2CCN(c3ccc(C(=O)NS(=O)(=O)c4ccc(NCC5CCOCC5)c([N+](=O)[O-])c4)c(Oc4cnc5[nH]ccc5c4)c3)CC2)=C(c2ccc(Cl)cc2)C1`, the viability, T/C was 121% and 110% (compound 0.0316 µM); 89.1% and 75.1% (compound 0.1 µM); 99.5% and 103% (compound 0.316 µM); 89.8% and 80.3% (compound 1 µM); 101% and 86.2% (compound 3.16 µM); 10.7% and 79.9% (compound 10 µM). Further, where the note is “curve of compound”, the IC50 is 6030 nM and > 10000 nM.
In the case of `CC1COCCN1c1cc(C2(S(C)(=N)=O)CC2)nc(-c2ccnc3[nH]ccc23)n1` (configuration not stated), the viability, T/C runs as follows: (compound 0.0316 µM) 102% and 109%; (compound 0.1 µM) 94.1% and 75.7%; (compound 0.316 µM) 87.9% and 82.8%; (compound 1 µM) 89.5% and 69.8%; (compound 3.16 µM) 35.7% and 35%; (compound 10 µM) 21.4% and 20.1%. Also, the half-inhibitory concentration (IC50) (curve of compound) was 2330 nM and 1890 nM.
In the case of `CN1CCN(c2cc(C(=O)Nc3cc4cc(-c5cnn(C)c5)ccc4cn3)ccn2)CC1`, the viability, T/C runs as follows: (compound 0.1 µM) 54.9% [middle of 12 runs]; (compound 0.316 µM) 21.7% [middle of 12 runs]; (compound 1 µM) 1.79% [middle of 12 runs]; (compound 3.16 µM) 0.9% [middle of 12 runs]; (compound 10 µM) 0.22% [middle of 9 runs]. For the same compound, for the setting “compound alone, run of 07/31/2023”, the IC50 is 119 nM [middle of 12 runs].
Take `COc1ccc([C@@H](O)c2cc(-c3ncnc4cc(N5CCOCC5)ccc34)c(F)cc2Cl)nn1`: the viability, T/C (compound 0.0316 µM) is 100% and 86.5%; the viability, T/C (compound 0.1 µM) is 68.5% and 86.3%; the viability, T/C (compound 0.316 µM) is 58.5% and 56.8%; the viability, T/C (compound 1 µM) is 52.6% and 42.2%; the viability, T/C (compound 3.16 µM) was 34.3% and 27.2%; the viability, T/C (compound 10 µM) was 10.5% and 11.7%. For the setting “curve of compound”, the IC50 was 756 nM and 632 nM.
Take `COc1cccc2c1C(=O)c1c(O)c3c(c(O)c1C2=O)CC(O)(C(=O)CO)CC3OC1CC(N)C(O)C(C)O1` (configuration not stated): the viability, T/C was 36.9% and 42.6% (compound 0.0316 µM); 24.5% and 29.6% (compound 0.1 µM); 26.5% and 27.4% (compound 0.316 µM); 16.9% and 18.4% (compound 1 µM); 3.52% and 3.31% (compound 3.16 µM); 1.28% and 0.73% (compound 10 µM). Also, the IC50 (curve of compound) is < 31.6 nM.
On to `Nc1ccn(C2OC(CO)C(O)C2(F)F)c(=O)n1` (configuration not stated), for which the viability, T/C was 53.5% and 66.5% (compound 0.0316 µM); 28.6% and 26% (compound 0.1 µM); 22.5% and 22.4% (compound 0.316 µM); 24.3% and 26% (compound 1 µM); 25.1% and 29.9% (compound 3.16 µM); 29.4% and 29.8% (compound 10 µM). Moreover, under “curve of compound”, the IC50 was 37.1 nM and 51.3 nM.
As for `O=C(c1cc(Cc2n[nH]c(=O)c3ccccc23)ccc1F)N1CCN(C(=O)C2CC2)CC1`, the viability, T/C was 100% and 92.1% (compound 0.0316 µM); 81.1% and 72% (compound 0.1 µM); 103% and 91.9% (compound 0.316 µM); 89.3% and 89.4% (compound 1 µM); 96.2% and 123% (compound 3.16 µM); 86.3% and 79.1% (compound 10 µM). For the same compound, the IC50 (curve of compound) was > 10000 nM.
Regarding `O=c1[nH]cc(F)c(=O)[nH]1`, the viability, T/C (compound 0.0316 µM) is 94.6% and 72.3%; the viability, T/C (compound 0.1 µM) is 93.9% and 80.7%; the viability, T/C (compound 0.316 µM) is 56.5% and 62.8%; the viability, T/C (compound 1 µM) is 38% and 36.6%; the viability, T/C (compound 3.16 µM) was 36.2% and 32.5%; the viability, T/C (compound 10 µM) is 29.7% and 25.7%. Also, the IC50 (curve of compound) is 457 nM and 563 nM.
